Results taken from US6624163B2, “Benzothiazole derivatives” (Hoffman-La Roche Inc., priority 2001, dated 2003).

Assays:
[1] = biological target: T1, human adenosine A2A receptor (Homo sapiens, UniProt P29274); experiment: [3H]-SCH-58261 binding assay, human adenosine A2A receptor expressed in CHO cell membranes (SPA); details: [3H]-SCH-58261 (1 nM) displacement; recombinant receptor in CHO cell membranes; Ki by Cheng-Prussoff from IC50; read-out: hA2 (pKi) (converted)
T1 construct: expressed in transfected cells; host or cells: CHO cells, semliki forest virus expression system; membrane preparation
T1 sequence (P29274 whole entry): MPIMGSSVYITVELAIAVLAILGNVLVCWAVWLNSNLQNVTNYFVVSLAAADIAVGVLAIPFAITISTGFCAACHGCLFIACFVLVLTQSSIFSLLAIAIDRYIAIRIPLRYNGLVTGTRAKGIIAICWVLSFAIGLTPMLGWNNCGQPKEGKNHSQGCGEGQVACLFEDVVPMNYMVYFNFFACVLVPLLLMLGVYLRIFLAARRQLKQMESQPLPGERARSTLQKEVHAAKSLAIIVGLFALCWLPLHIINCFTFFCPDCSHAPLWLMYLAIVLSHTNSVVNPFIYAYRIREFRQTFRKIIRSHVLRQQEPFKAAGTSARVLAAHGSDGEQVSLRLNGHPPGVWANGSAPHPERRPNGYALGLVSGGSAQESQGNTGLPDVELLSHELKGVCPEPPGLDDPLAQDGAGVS
Experimental: Human Adenosine A2A Receptor
The human adenosine A2A receptor was recombinantly expressed in chinese hamster ovary (CHO) cells using the semliki forest virus expression system. Cells were harvested, washed twice by centrifugation, homogenised and again washed by centrifugation. The final washed membrane pellet was suspended in a Tris (50 mM) buffer containing 120 mM NaCl, 5 mM KCl, 2 mM CaCl2 and 10 mM MgCl2 (pH 7.4) (buffer A). The [^3H]-SCH-58261 (Dionisotti et al., 1997, Br J Pharmacol 121, 353; 1 nM) binding assay was carried out in 96-well plates in the presence of 2.5 μg of membrane protein, 0.5 mg of Ysi-poly-1-lysine SPA beads and 0.1 U adenosine deaminase in a final volume of 200 μl of buffer A. Non-specific binding was defined using xanthine amine congener (XAC; 2 μM). Compounds were tested at 10 concentrations from 10 μM −0.3 nM. All assays were conducted in duplicate and repeated at least two times. Assay plates were incubated for 1 hour at room temperature before centrifugation and then bound ligand determined using a Packard Topcount scintillation counter. IC50 values were calculated using a non-linear curve fitting program and Ki values calculated using the Cheng-Prussoff equation.

SMILES | Ki [1] [nM] | melting point [°C]
COc1ccc(N2CCOCC2)c2sc(NC(=O)c3ccc(CN(C)C(=O)C4CCC4)cc3)nc12 [Example 5, 4-[(Cyclobutanecarbonyl-methyl-amino)-methyl]-N-(4-methoxy-7-morpholin-4-yl-benzothiazol-2-yl)-benzamide] | 0.794 | –
COc1ccc(N2CCOCC2)c2sc(NC(=O)c3ccc(CNC(C)=O)cc3)nc12 [Example 12, 4-(Acetylamino-methyl)-N-(4-methoxy-7-morpholin-4-yl-benzothiazol-2-yl)-benzamide] | 0.794 | –
COc1ccc(N2CCOCC2)c2sc(NC(=O)c3ccc(CN(C)C(=O)CN4CCCC4)cc3)nc12 [Example 19, N-(4-Methoxy-7-morpholin-4-yl-benzothiazol-2-yl)-4-{[methyl-(pyrrolidin-1-yl-acetyl)-amino]-methyl}-benzamide] | 1.58 | 114 to 116
COCC(=O)NCc1ccc(C(=O)Nc2nc3c(OC)ccc(N4CCOCC4)c3s2)cc1 [Example 1, 4-[(2-Methoxy-acetylamino)-methyl]-N-(4-methoxy-7-morpholin-4-yl-benzothiazol-2-yl)-benzamide] | 0.794 | –
COCCN(C)CC(=O)N(C)Cc1ccc(C(=O)Nc2nc3c(OC)ccc(N4CCOCC4)c3s2)cc1 [Example 18, 4-[({[(2-Methoxy-ethyl)-methyl-amino]-acetyl}-methyl-amino)-methyl]-N-(4-methoxy-7-morpholin-4-yl-benzothiazol-2-yl)-benzamide] | – | 171 to 173
CCC(=O)NCc1ccc(C(=O)Nc2nc3c(OC)ccc(N4CCOCC4)c3s2)cc1 [Example 7, N-(4-Methoxy-7-morpholin-4-yl-benzothiazol-2-yl)-4-(propionylamino-methyl)-benzamide] | 1 | –
COc1ccc(N2CCOCC2)c2sc(NC(=O)c3ccc(CNC(=O)C4CC4)cc3)nc12 [Example 9, 4-[(Cyclopropanecarbonyl-amino)-methyl]-N-(4-methoxy-7-morpholin-4-yl-benzothiazol-2-yl)-benzamide] | 1 | –
COc1ccc(N2CCOCC2)c2sc(NC(=O)c3ccc(CN(C)C(=O)C4CC4)cc3)nc12 [Example 4, 4-[(Cyclopropanecarbonyl-methyl-amino)-methyl]-N-(4-methoxy-7-morpholin-4-yl-benzothiazol-2-yl)-benzamide] | 0.631 | –
COc1ccc(N2CCOCC2)c2sc(NC(=O)c3ccc(CNC(=O)C4CCC4)cc3)nc12 [Example 11, 4-[(Cyclobutanecarbonyl-amino)-methyl]-N-(4-methoxy-7-morpholin-4-yl-benzothiazol-2-yl)-benzamide] | 0.501 | –

Results, then the compound that gave them:

Ki [1] [nM] | melting point [°C] | SMILES
1.26 | – | COCC(=O)N(C)Cc1ccc(C(=O)Nc2nc3c(OC)ccc(N4CCOCC4)c3s2)cc1 [Example 2, 4-[(Methoxyacetyl-methyl-amino)-methyl]-N-(4-methoxy-7-morpholin-4-yl-benzothiazol-2-yl)-benzamide]
1.26 | – | COc1ccc(N2CCOCC2)c2sc(NC(=O)c3ccc(CN(C)C(=O)CN(C)C)cc3)nc12 [Example 15, 4-[(Dimethylaminoacetyl-methyl-amino)-methyl]-N-(4-methoxy-7-morpholin-4-yl-benzothiazol-2-yl)-benzamide]
0.631 | – | CCC(=O)N(C)Cc1ccc(C(=O)Nc2nc3c(OC)ccc(N4CCOCC4)c3s2)cc1 [Example 6, N-(4-Methoxy-7-morpholin-4-yl-benzothiazol-2-yl)-4-[(methyl-propionyl-amino)-methyl]-benzamide]
1 | – | COc1ccc(N2CCOCC2)c2sc(NC(=O)c3ccc(CN(C)C(C)=O)cc3)nc12 [Example 10, 4-[(Acetyl-methyl-amino)-methyl]-N-(4-methoxy-7-morpholin-4-yl-benzothiazol-2-yl)-benzamide]
1.26 | – | CCC(=O)N(CC)Cc1ccc(C(=O)Nc2nc3c(OC)ccc(N4CCOCC4)c3s2)cc1 [Example 14, 4-[(Ethyl-propionyl-amino)-methyl]-N-(4-methoxy-7-morpholin-4-yl-benzothiazol-2-yl)-benzamide]
